From patent EP4745134A1 (Jiangsu Yahong Meditech Co., Ltd., priority 2023, dated 2025)
Like-named read-outs stand apart in the source and are kept apart here.

Columns and labels:
HCT116 MTAP KO cells = assay: Inhibitory activity against cell proliferation (CellTiter Glo, 6 days), HCT116 MTAP KO; assay type: cell-based; details: for IC50: Homo sapiens, HCT-116, 144 h; for Selectivity HCT 116-WT/ HCT116 MTAP KO: ratio of IC50 HCT116-WT / HCT116 MTAP KO
How it was run: (§1)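 HCT116 wild-type or MTAP-knockout cells (250/well, McCoy's 5A + 10% FBS) treated after overnight culture with 8-point 4-fold dilutions from 10000 nM for 6 days at 37 °C. Viability read by CellTiter Glo luminescence on day 7; IC50 calculated against DMSO controls.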

HCT116-WT cells = assay: Inhibitory activity against cell proliferation (CellTiter Glo, 6 days), HCT116-WT; assay type: cell-based; details: 144 h
How it was run: as §1

MTAP-deficient HCT116 = assay: Pharmacodynamic test in human colon cancer xenograft model (MTAP-deficient HCT116); assay type: in vivo; details: 100 mpk, orally by gavage once a day, HCT116 MTAP deficient mice xenograft
Procedure: The compounds (100 mpk, blank vehicle as a control) were orally administered to the HCT116 MTAP deficient mice (cell source: creative biogene-CSC-RT2701) of human colon cancer xenograft model by gavage daily during the experimental planning period. The positive compound AMG9747 was synthesized according to the method reported in the patent WO2021163344A1. The compounds were formulated as follows: weighing 100.00 mg of a test compound, adding it to 10 mL of 0.5% MC4000+0.2% Tween 80, vortexing and shaking to prepare a suspension, i.e., a dose of 100 mpk. Each group had 8 mice and was subjected to administration by gavage once a day. The tumor volume was measured once in groups before administration, and measured on days 3, 6, 10, 13, 16 and 19 respectively after administration. The positive drug (synthesized according to the patent WO2021163344A1) AMG-9747 was used as a control, and compound AMG-9747 has a structure of: [drawing 1174] Table 3. Percentage of inhibition of the compounds of the present invention on tumor growth in the human colon cancer xenograft (MTAP-deficient HCT116) model

PRMT5-MTA = PRMT5-MTA (Homo sapiens, UniProt O14744); assay: Enzymatic inhibitory activity against PRMT5-MTA (AlphaScreen); assay type: biochemical
How it was run: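 PRMT5/[…] (1 nM) was preincubated for 30 min at room temperature with 1 µM […] and 2.5 µM SAM, then exposed to compound (10-point, 3-fold from 1000 nM) for 15 min at 23 °C. Histone H4 substrate (5 nM) was added and reacted for 45 min at 23 °C. Symmetric dimethyl-R3 H4 was detected by AlphaScreen and IC50 calculated.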

[1] = HCT116 MTAP KO cells, 6 days, CellTiter Glo, read-out: HCT116 MTAP KO IC50
[2] = HCT116-WT cells, 6 days, CellTiter Glo, read-out: HCT116-WT IC50

Sequence of PRMT5-MTA (O14744 whole entry): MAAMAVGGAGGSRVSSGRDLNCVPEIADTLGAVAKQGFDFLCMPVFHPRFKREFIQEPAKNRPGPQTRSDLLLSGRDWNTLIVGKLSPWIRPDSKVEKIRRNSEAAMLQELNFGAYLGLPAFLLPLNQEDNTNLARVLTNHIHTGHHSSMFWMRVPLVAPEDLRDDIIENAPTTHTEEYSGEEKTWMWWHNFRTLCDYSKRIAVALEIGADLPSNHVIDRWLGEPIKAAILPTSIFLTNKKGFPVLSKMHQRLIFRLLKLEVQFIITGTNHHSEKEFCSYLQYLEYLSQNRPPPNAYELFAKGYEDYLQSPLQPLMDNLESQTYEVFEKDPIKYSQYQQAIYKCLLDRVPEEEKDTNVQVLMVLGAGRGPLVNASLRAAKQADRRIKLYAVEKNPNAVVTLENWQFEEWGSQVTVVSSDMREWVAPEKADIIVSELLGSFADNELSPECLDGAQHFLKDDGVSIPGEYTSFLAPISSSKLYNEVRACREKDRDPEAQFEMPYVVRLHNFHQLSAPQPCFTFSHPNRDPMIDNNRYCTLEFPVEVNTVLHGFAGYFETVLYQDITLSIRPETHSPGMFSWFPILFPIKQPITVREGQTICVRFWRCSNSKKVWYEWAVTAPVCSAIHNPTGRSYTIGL
Sequence of PRMT5-MTA (Q9BQA1 whole entry partner): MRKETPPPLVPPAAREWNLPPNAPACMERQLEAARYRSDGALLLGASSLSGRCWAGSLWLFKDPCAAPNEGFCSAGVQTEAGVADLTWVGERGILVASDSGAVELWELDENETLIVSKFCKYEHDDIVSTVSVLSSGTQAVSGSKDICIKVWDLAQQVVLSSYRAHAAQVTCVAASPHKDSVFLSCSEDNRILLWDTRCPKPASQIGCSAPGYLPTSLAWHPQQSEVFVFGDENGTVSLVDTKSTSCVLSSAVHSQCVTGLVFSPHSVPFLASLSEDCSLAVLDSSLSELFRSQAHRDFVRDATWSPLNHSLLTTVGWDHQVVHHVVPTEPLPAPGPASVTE

Row | Structure (SMILES) | IC50 (HCT116 MTAP KO cells; [1]) | Selectivity HCT 116-WT/ HCT116 MTAP KO (HCT116 MTAP KO cells) | IC50 (HCT116-WT cells; [2]) | Percentage of tumor growth inhibition (MTAP-deficient HCT116) | IC50 (PRMT5-MTA; read-out: IC50) | IC50 (HCT116 MTAP KO cells; read-out: HCT116 MTAP KO IC50 (nM)) | IC50 (HCT116-WT cells; read-out: HCT116-WT IC50 (nM)) | IC50 (PRMT5-MTA)
1 | Cc1cc2cc(C(=O)N(Cc3ccc(-c4cnn(C(F)(F)F)c4)cn3)N(C)c3ncccn3)ccc2nc1N [Example 189, 2-amino-N',3-dimethyl-N'-(pyrimidin-2-yl)-N-((5-(1-(trifluoromethyl)-1H-pyrazol-4-yl)pyridin-2-yl)methyl)quinoline-6-carbohydrazide] | 55 nM | 42.00 | 2310 nM | 93% | 1.7 nM |  |  | 
2 | Cc1cc2cc(C(=O)N(Cc3ccc(C(F)(F)F)cn3)N(C)c3ncccn3)ccc2nc1N [Example 1, 2-amino-N',3-dimethyl-N'-(pyrimidin-2-yl)-N-((5-(trifluoromethyl)pyridin-2-yl)methyl) quinoline-6-carbohydrazide] | 32 nM | 19.47 | 623 nM | 80% | 1 nM |  |  | 
3 | Cc1cc2cc(C(=O)N(Cc3ccc(C(F)(F)F)cn3)N(c3ncccn3)C3CC3)ccc2nc1N [Example 3, 2-amino-N'-cyclopropyl-3-methyl-N'-(pyrimidin-2-yl)-N-((5-(trifluoromethyl)pyridin-2-yl)methyl)quinoline-6-carbohydrazide] | 27 nM | 21.04 | 568 nM | 86% | 2.6 nM |  |  | 
4 | Cc1cc2cc(C(=O)N(Cc3ccc(C(F)(F)F)cn3)[C@H](C)c3ncccn3)ccc2nc1N [AMG-9747, reference compound] |  |  |  | 68% |  |  |  | 
5 | Cc1cc2nc(N)c3cnn(C)c3c2cc1C(=O)N1CC(C)CN1c1ncc(Br)cc1F (stereo not shown) [Example 392, (4-amino-1,7-dimethyl-1H-pyrazolo[4,3-c]quinolin-8-yl)(2-(5-bromo-3-fluoropyridin-2-yl)-4-methylpyrazolidin-1-yl)metha none] | 28 nM | 40.21 | 1130 nM | 69% | 4 nM |  |  | 
6 | Cc1cc2cc(C(=O)N(Cc3ccc(-c4scnc4C)cn3)N(c3ncccn3)C3CC3)ccc2nc1N [Example 184, 2-amino-N'-cyclopropyl-3-methyl-N-((5-(4-methylthiazol-5-yl)pyridin-2-yl)methyl)-N'-(pyrimidin-2-yl)quinoline-6-carbohydrazide] | 13 nM | 18.46 | 240 nM | 81% | 7.4 nM |  |  | 
7 | Cc1cc2cc(C(=O)N(Cc3ccc(C(F)(F)F)cn3)N(C)c3nccc4cccnc34)ccc2nc1N [Example 91, 2-amino-N',3-dimethyl-N'-(1,7-naphthyridin-8-yl)-N-((5-(trifluoromethyl)pyridin-2-yl)methyl)quinoline-6-carbohydrazide] | 43 nM | 39.42 | 1700 nM |  | 2.9 nM |  |  | 
8 | Nc1nc2ccc(C(=O)N(Cc3ccc(C(F)(F)F)cn3)N(c3ncccn3)C3CC3)cc2cc1Br [Example 270, 2-amino-3-bromo-N'-cyclopropyl-N'-(pyrimidin-2-yl)-N-((5-(trifluoromethyl)pyridin-2-yl)methyl)quinoline-6-carbohydrazide] | 110 nM | 13.74 | 1510 nM |  | 4.9 nM |  |  | 
9 | Cc1cc2cc(C(=O)N(Cc3ccc(-c4ccc(N5CCN(C)CC5)nc4)cn3)N(C)c3ncccn3)ccc2nc1N [Example 140, 2-amino-N',3-dimethyl-N-((6'-(4-methylpiperazin-1-yl)-[3,3'-bipyridine]-6-yl)methyl)-N'-(pyrimidin-2-yl)quinoline-6-carbohydrazide] | 46 nM | 44.67 | 2060 nM |  | 1.6 nM |  |  | 
10 | Cc1cc2cc(C(=O)N(Cc3ccc(C(F)(F)F)cn3)N(C)c3nccc4ccncc34)ccc2nc1N [Example 266, 2-amino-N',3-dimethyl-N'-(2,7-naphthyridin-1-yl)-N-((5-(trifluoromethyl)pyridin-2-yl)methyl)quinoline-6-carbohydrazide] | 231 nM | 13.60 | 3140 nM |  | 2.6 nM |  |  | 
11 | Cn1ncc2c(N)nc3cc(Cl)c(C(=O)N4CC(F)(F)CN4c4ncccc4F)cc3c21 [Example 459, (4-amino-7-chloro-1-methyl-1H-pyrazolo [4,3-c]quinolin-8-yl)(4,4-difluoro-2-(3-fluoropyridin-2-yl)pyrazolidin-1-yl)methanone] | 30 nM | 13.60 | 408 nM |  | 4.7 nM |  |  | 
12 | Nc1nc2ccc(C(=O)N(Cc3ccc(C(F)(F)F)cn3)N(c3ncccn3)C3CC3)cc2cc1CO [Example 320, 2-amino-N'-cyclopropyl-3-(hydroxymethyl)-N'-(pyrimidin-2-yl)-N-((5-(trifluoromethyl)pyridin-2-yl)methyl)quinoline-6-carbohydrazide] | 102 nM | 24.70 | 2520 nM |  | 5.5 nM |  |  | 
13 | Cc1cc2cc(C(=O)N(Cc3ccc(C4(F)CCC4)cn3)N(C)c3ncccn3)ccc2nc1N [Example 287, 2-amino-N-((5-(1-fluorocyclobutyl)pyridin-2-yl)methyl)-N',3-dimethyl-N'-(pyrimidin-2-yl)quinoline-6-carbohydrazide] | 113 nM | 22.69 | 2560 nM |  | 2.2 nM |  |  | 
14 | Cc1cc2cc(C(=O)N(Cc3ccc(C(F)(F)F)cn3)N(C)c3ncc4ccn(C)c4n3)ccc2nc1N [Example 126, 2-amino-N',3-dimethyl-N'-(7-methyl-7H-pyrrolo[2,3-d]pyrimidin-2-yl)-N-((5-(trifluoromethyl)pyridin-2-yl)methyl)quinoline-6-carbohydrazide] | 90 nM | 16.41 | 1480 nM |  | 1.3 nM |  |  | 
15 | Cc1cc2nc(N)c3cnn(C)c3c2cc1C(=O)N1CCCN1c1ncc(-c2ccc(N3CCN(C)CC3)nc2)cc1F [Example 478] |  | 26.01 |  |  |  | 166 nM | 4320 nM | 19 nM
16 | Cn1ncc2c(N)nc3cc(Cl)c(C(=O)N4CC(CF)CN4c4ncccc4F)cc3c21 (stereo not shown) [Example 359, (4-amino-7-chloro-1-methyl-1H-pyrazolo[4,3-c]quinolin-8-yl)(4-(fluoromethyl)-2-(3-fluoropyridin-2-yl)pyrazolin-1-yl)methanone] | 50 nM | 23.50 | 1180 nM |  |  |  |  | 2.7 nM
17 | Cc1cc2cc(C(=O)N(Cc3ccc(Br)cn3)N(C)c3ncccc3C(F)(F)F)ccc2nc1N [Example 60, 2-amino-N-((5-bromopyridin-2-yl)methyl)-N',3-dimethyl-N'-(3-(trifluoromethyl)pyridin-2-yl)quinoline-6-carbohydrazide] | 60 nM | 11.80 | 708 nM |  | 2.3 nM |  |  | 
18 | Cn1ncc2c(N)nc3cc(Cl)c(C(=O)N4CC5(CC5)CN4c4ncc(Cl)cc4F)cc3c21 [Example 347, (4-amino-7-chloro-1-methyl-1H-pyrazolo [4,3-c]quinolin-8-yl)(6-(5-chloro-3-fluoropyridin-2-yl)-5,6-diazaspiro[2.4]heptan-5-yl)methanone] | 32 nM | 39.88 | 1280 nM |  | 7.1 nM |  |  | 
19 | Cc1cc2cc(C(=O)N(Cc3ccc(C4=CCOCC4)cn3)N(C)c3ncccn3)ccc2nc1N [Example 159, 2-amino-N-((5-(3,6-dihydro-2H-pyran-4-yl)pyridin-2-yl)methyl)-N',3-dimethyl-N' -(pyrimidin-2-yl)quinoline-6-carbohydrazide] | 72 nM | 28.76 | 2070 nM |  | 3.3 nM |  |  | 
20 | Cc1cc2cc(C(=O)N(Cc3ccc(-c4nncs4)cn3)N(c3ncccn3)C3CC3)ccc2nc1N [Example 250, N-((5-(1,3,4-thiadiazol-2-yl)pyridin-2-yl)methyl)-2-amino-N'-cyclopropyl-3-methyl-N'-(pyrimidin-2-yl)quinoline-6-carbohy drazide] | 41 nM | 20.00 | 820 nM |  | 3.7 nM |  |  | 
